Test results reported in patent US6383812B1, “Anti liver disease drug R-YEEE and method of synthesizing branched galactose-terminal glycoproteins” (Academia Sinica, priority 1999, dated 2002).

What was measured:
[1] = molecular target: T1, asialoglycoprotein receptor (ASGPr) (Homo sapiens, UniProt P07306+P07307); conditions: reported by Lee et al., Glycoconjugate J., 1987; cited from earlier work
T1 sequence (P07306 1-291): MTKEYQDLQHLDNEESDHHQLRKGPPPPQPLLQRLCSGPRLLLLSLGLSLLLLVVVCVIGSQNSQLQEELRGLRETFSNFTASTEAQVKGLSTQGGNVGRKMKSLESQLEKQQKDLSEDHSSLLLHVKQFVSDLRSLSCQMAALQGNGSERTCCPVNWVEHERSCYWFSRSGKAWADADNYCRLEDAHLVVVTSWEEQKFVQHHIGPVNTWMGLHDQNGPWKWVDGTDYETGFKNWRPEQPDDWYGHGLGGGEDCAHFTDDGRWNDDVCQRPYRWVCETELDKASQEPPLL
T1 sequence (P07307 1-311): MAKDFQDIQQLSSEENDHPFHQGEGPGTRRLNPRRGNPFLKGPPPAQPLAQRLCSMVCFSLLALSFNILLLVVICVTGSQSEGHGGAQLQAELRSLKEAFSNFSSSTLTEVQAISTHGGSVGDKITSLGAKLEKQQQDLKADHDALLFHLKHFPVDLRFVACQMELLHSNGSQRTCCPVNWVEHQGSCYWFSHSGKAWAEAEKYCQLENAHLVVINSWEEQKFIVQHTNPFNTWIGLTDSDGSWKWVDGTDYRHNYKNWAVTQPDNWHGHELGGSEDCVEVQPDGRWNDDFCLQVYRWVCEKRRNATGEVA

[2] = molecular target: T1, asialoglycoprotein receptor (ASGPr); test: Affinity of synthetic ligand to the asialoglycoprotein receptor; type: binding; conditions: relative to YEE(GalNAcAH)3; no method described

## tris-(N-acetylgalactosamine aminohexyl)glycoside of tyrosyl(glutamyl)glutamate [YEE(GalNAcAH)3]
[1]
  affinity to the ASGP-r: subnanomolar

## tris-(N-acetylgalactosamine aminohexyl)glycoside of tyrosyl(glutamyl)2 glutamate [YEEE(GalNAcAH)3]
[2]
  affinity to asialoglycoprotein receptors: comparable to YEE(GalNAcAH)3
